Like-named read-outs stand apart in the source and are kept apart here.
What was measured:
SNU449 or Huh7 cell line = experiment: SRB cell proliferation assay, liver cancer cell lines; type: cell-based; conditions: for degree of cell proliferation with respect to the untreated control: gossypol 5 μM, phenformin 100 μM, cisplatin 1 μM, single or double (Table 22, FIG. 8A); for synergistic effect of anticancer action when mixed with gossypol and phenformin: liver cancer, cisplatin 1 μM or sorafenib 5 μM + gossypol 5 μM + phenformin 100 μM
[1] = tested on: BT549 cell line or MB231 cell line; experiment: SRB cell proliferation assay, breast cancer cell lines; type: cell-based; conditions: for synergistic effect of anticancer action when mixed with gossypol and phenformin: breast cancer, named agent + gossypol 5 μM + phenformin 100 μM (Tables 13-15); for degree of cell proliferation with respect to the untreated control: gossypol 5 μM, phenformin 100 μM, third agent per Table 13 paclitaxel 50 nM, single, double or triple (FIG. 5A)
[2] = tested on: A549 cell line or H522 cell line; experiment: SRB cell proliferation assay, non-small cell lung cancer cell lines; type: cell-based; conditions: for effect of inhibiting cell proliferation in the triple drug treatment group: cisplatin 20 μM or 5-FU 5 μM mixed with gossypol 5 μM and phenformin 100 μM (Tables 11-12, FIGS. 4B, 4C); for synergistic effect of anticancer action when mixed with gossypol and phenformin: lung cancer (NSCLC), cisplatin 20 μM or 5-FU 5 μM + gossypol 5 μM + phenformin 100 μM; for synergistic effect of anticancer action when mixed with gossypol and phenformin / degree of cell proliferation with respect to the untreated control: irinotecan 1 μM; for degree of cell proliferation with respect to the untreated control: gossypol 5 μM, phenformin 100 μM, single, double or triple (Table 10, FIG. 4A)
[3] = tested on: SK-OV-3 or OVCAR3 cell line; experiment: SRB cell proliferation assay, ovarian cancer cell lines; type: cell-based; conditions: for degree of cell proliferation with respect to the untreated control: gossypol 5 μM, phenformin 100 μM, single or double (Table 16, FIG. 6A); for degree of cell proliferation with respect to the untreated control / synergistic effect of anticancer action when mixed with gossypol and phenformin: cisplatin 1 nM; for synergistic effect of anticancer action when mixed with gossypol and phenformin: ovarian cancer, paclitaxel 50 nM or irinotecan 0.5 μM + gossypol 5 μM + phenformin 100 μM; for effect of inhibiting cell proliferation in the triple drug treatment group: paclitaxel 50 nM or irinotecan 0.5 μM mixed with gossypol 5 μM and phenformin 100 μM (Tables 17-18, FIGS. 6B, 6C)
[4] = tested on: HT29 cell line or Colo205 cell line; experiment: SRB cell proliferation assay, colorectal cancer cell lines; type: cell-based; conditions: for effect of inhibiting cell proliferation in the triple drug treatment group: cisplatin or capecitabine 10 μM mixed with gossypol 2.5 μM and phenformin 75 μM (Tables 8-9, FIGS. 3B, 3C); for synergistic effect of anticancer action when mixed with gossypol and phenformin: colon cancer, irinotecan 1 μM (phenformin 50 μM) or cisplatin/capecitabine 10 μM (phenformin 75 μM) + gossypol 2.5 μM; for degree of cell proliferation with respect to the untreated control: gossypol 2.5 μM, phenformin 50 μM, irinotecan 1 μM, single, double or triple (Table 7, FIG. 3A)
[5] = tested on: UACC62 cell line or an A375 cell line; experiment: SRB cell proliferation assay, melanoma cell lines; type: cell-based; conditions: for effect of inhibiting cell proliferation in the triple drug treatment group: cisplatin or oxaliplatin 10 μM mixed with gossypol 5 μM and phenformin 100 μM (Tables 5-6, FIGS. 2B, 2C); for degree of cell proliferation with respect to the untreated control: gossypol 5 μM, phenformin 100 μM, single, double or triple (Table 4, FIG. 2A)
[6] = tested on: ACHN cell line or CAKI-1 cell line; experiment: SRB cell proliferation assay, kidney cancer cell lines; type: cell-based; conditions: for degree of cell proliferation with respect to the untreated control: gossypol 2.5 μM, phenformin 100 μM, sorafenib 10 μM, single, double or triple (Table 1, FIG. 1A)
Experimental: Specifically, while culturing the ACHN cell line or CAKI-1 cell line, which is a kidney cancer cell line, each cell was inoculated into a 96-well plate at a density of 5,000 to 20,000 cells/well depending on the amplification phase of the culture time. After inoculation, the anticancer agent mixtures of the following [Table 1] to [Table 3] were added to each well and cultured in a CO2 incubator for 24 hours. The anticancer agent mixture was prepared so that the final concentration of each anticancer agent can be appropriately added by mixing each at a stock concentration and then adding 100 μl each. After treatment with the anticancer agent, cells were further cultured for 48 hours, and then 10% (w/v) trichloroacetic acid (TCA) was added to each well and incubated at 4° C. for 60 minutes to fix the cells. The supernatant liquid other than the fixed cells was removed, the plate was washed 5 times with tap water, and then dried in air. After drying, 100 μl of 0.4% (w/v) sulforhodamine B buffer solution containing 1% acetic acid was added to each well, and left at room temperature for 5 minutes to stain the cells. After staining the cells, the cells were washed 5 times with 1% acetic acid to remove unstained dye and then dried in air. The colored dye was immobilized with 10 mM trizma base, and then absorbance was measured at 515 nm using a plate reader. As an untreated control, the degree of cell proliferation of a cell line cultured without treatment with an anticancer agent was measured, and the degree of cell proliferation of each experimental group with respect to the untreated control was calculated as a relative ratio and expressed as a percentage (%).

[7] = tested on: PC3 cell line or DU145 cell line; experiment: SRB cell proliferation assay, prostate cancer cell lines; type: cell-based; conditions: for effect of inhibiting cell proliferation in the triple drug treatment group: docetaxel 50 nM or irinotecan 0.5 μM mixed with gossypol 5 μM and phenformin 100 μM (Tables 20-21, FIGS. 7B, 7C)
[8] = tested on: SNU638 cells xenograft tumor; experiment: Gastric cancer mouse model, tumor growth; type: in vivo, Balb/c-nu mice; conditions: gossypol 80 mg/kg, phenformin 100 mg/kg, irinotecan 30 mg/kg, single, double or triple; vs solvent control (Table 27, FIGS. 12A, 12B)
Experimental: First, in order to make a lung cancer mouse model, 6 to 8 week old Balb/c-nu mice (Central Lab. Animal, Highland Heights, KY, USA) were prepared. In addition, 7.5×10^6 A549 cell line was cultured, and was injected subcutaneously to the prepared mice with a 1 ml syringe. Mice were reared for 1 week and divided into 4 groups of 8 mice each, and these were used as a control group or an experimental group as defined in [Table 24] and [Table 25]. The solvent or drug was orally administered to the mice of the solvent control group, the double drug treatment group, and the triple drug treatment group once a day, 6 days per week, and while administering intravenously irinotecan to the mice of the single treatment group with irinotecan once a day, 1 day per week, the mice were reared in the same environment for a total of 49 days. While breeding, the average was obtained by checking the weight and size of the tumor of the mouse group every 7 days. After injection of lung cancer cells, the initial tumor size was specified using a calliper. The tumor volume was calculated according to the following [Equation 1].
Specifically, the mouse model with the gastric cancer was prepared by the same method as the method of preparing the lung cancer mouse model in [Example 9], except that the mouse model with the gastric cancer was prepared by xenografting SNU638 cells (1.5×10^7). Then, the prepared mouse model with the gastric cancer was used as a control group or an experimental group as defined in the following [Table 27].

[9] = tested on: A549 cell line xenograft tumor; experiment: Lung cancer mouse model, tumor growth; type: in vivo, Balb/c-nu mice
Experimental: First, in order to make a lung cancer mouse model, 6 to 8 week old Balb/c-nu mice (Central Lab. Animal, Highland Heights, KY, USA) were prepared. In addition, 7.5×10^6 A549 cell line was cultured, and was injected subcutaneously to the prepared mice with a 1 ml syringe. Mice were reared for 1 week and divided into 4 groups of 8 mice each, and these were used as a control group or an experimental group as defined in [Table 24] and [Table 25]. […] While breeding, the average was obtained by checking the weight and size of the tumor of the mouse group every 7 days. After injection of lung cancer cells, the initial tumor size was specified using a calliper. The tumor volume was calculated according to the following [Equation 1].

SMILES: N.N.[Cl][Pt][Cl] [cisplatin]
- degree of cell proliferation with respect to the untreated control (SNU449 or Huh7 cell line): proliferation of cancer cells could be inhibited at a significant level
- synergistic effect of anticancer action when mixed with gossypol and phenformin (SNU449 or Huh7 cell line): can exhibit a synergistic effect
- synergistic effect of anticancer action when mixed with gossypol and phenformin [1]: not exhibited
- effect of inhibiting cell proliferation in the triple drug treatment group ([1]; cisplatin 1 μM or doxorubicin 1 μM mixed with gossypol 5 μM and phenformin 100 μM (Tables 14-15, FIGS. 5B, 5C)): level similar to that of the double drug treatment group
- effect of inhibiting cell proliferation in the triple drug treatment group [2]: level similar to that of the double drug treatment group
- synergistic effect of anticancer action when mixed with gossypol and phenformin [2]: not exhibited
- degree of cell proliferation with respect to the untreated control [3]: proliferation of cancer cells could be inhibited at a significant level
- synergistic effect of anticancer action when mixed with gossypol and phenformin [3]: can exhibit a synergistic effect
- effect of inhibiting cell proliferation in the triple drug treatment group [4]: level similar to that of the double drug treatment group
- synergistic effect of anticancer action when mixed with gossypol and phenformin [4]: not exhibited
- effect of inhibiting cell proliferation in the triple drug treatment group [5]: level similar to that of the double drug treatment group
- synergistic effect of anticancer action when mixed with gossypol and phenformin ([5]; melanoma, vemurafenib 0.5 μM, cisplatin 10 μM or oxaliplatin 10 μM + gossypol 5 μM + phenformin 100 μM): not exhibited

SMILES: CNC(=O)c1cc(Oc2ccc(NC(=O)Nc3ccc(Cl)c(C(F)(F)F)c3)cc2)ccn1 [sorafenib]
- synergistic effect of anticancer action when mixed with gossypol and phenformin (SNU449 or Huh7 cell line): not exhibited
- effect of inhibiting cell proliferation in the triple drug treatment group (SNU449 or Huh7 cell line; sorafenib 5 μM mixed with gossypol 5 μM and phenformin 100 μM (Table 23, FIG. 8B)): level similar to that of the double drug treatment group
- degree of cell proliferation with respect to the untreated control [6]: proliferation of cancer cells could be inhibited
- synergistic effect of anticancer action when mixed with gossypol and phenformin ([6]; renal cell carcinoma, named agent 10 μM + gossypol 2.5 μM + phenformin 100 μM): can exhibit a synergistic effect

SMILES: CC(=O)O[C@H]1C(=O)[C@@]2(C)[C@H]([C@H](OC(=O)c3ccccc3)[C@]3(O)C[C@H](OC(=O)[C@H](O)[C@@H](NC(=O)c4ccccc4)c4ccccc4)C(C)=C1C3(C)C)[C@]1(OC(C)=O)CO[C@@H]1C[C@@H]2O [paclitaxel]
- synergistic effect of anticancer action when mixed with gossypol and phenformin [3]: not exhibited
- effect of inhibiting cell proliferation in the triple drug treatment group [3]: level similar to that of the double drug treatment group

SMILES: NC(N)=N/C(N)=N/CCc1ccccc1 [phenformin]
- degree of cell proliferation with respect to the untreated control ([7]; gossypol 5 μM, phenformin 100 μM, doxorubicin 1 nM, single, double or triple (Table 19, FIG. 7A)): proliferation of cancer cells could be inhibited at a significant level
- degree of cell proliferation with respect to the untreated control (SNU449 or Huh7 cell line): proliferation of cancer cells could be inhibited at a significant level
- degree of cell proliferation with respect to the untreated control [1]: proliferation of cancer cells could be inhibited at a significant level
- level of tumor growth [8]: a level similar to levels of tumor growth
- degree of cell proliferation with respect to the untreated control [2]: proliferation of cancer cells could be inhibited at a significant level
- degree of cell proliferation with respect to the untreated control [3]: proliferation of cancer cells could be inhibited at a significant level
- degree of cell proliferation with respect to the untreated control [4]: proliferation of cancer cells could be inhibited at a significant level
- degree of cell proliferation with respect to the untreated control [6]: proliferation of cancer cells could be inhibited
- degree of cell proliferation with respect to the untreated control ([5]; vemurafenib 0.5 μM): proliferation of cancer cells could be inhibited at a significant level

SMILES: Cc1cc2c(C(C)C)c(O)c(O)c(C=O)c2c(O)c1-c1c(C)cc2c(C(C)C)c(O)c(O)c(C=O)c2c1O [gossypol]
- degree of cell proliferation with respect to the untreated control [7]: proliferation of cancer cells could be inhibited at a significant level
- degree of cell proliferation with respect to the untreated control (SNU449 or Huh7 cell line): proliferation of cancer cells could be inhibited at a significant level
- degree of cell proliferation with respect to the untreated control [1]: proliferation of cancer cells could be inhibited at a significant level
- level of tumor growth [8]: a level similar to levels of tumor growth
- degree of cell proliferation with respect to the untreated control [2]: proliferation of cancer cells could be inhibited at a significant level
- degree of cell proliferation with respect to the untreated control [3]: proliferation of cancer cells could be inhibited at a significant level
- degree of cell proliferation with respect to the untreated control [4]: proliferation of cancer cells could be inhibited at a significant level
- degree of cell proliferation with respect to the untreated control [6]: proliferation of cancer cells could be inhibited
- degree of cell proliferation with respect to the untreated control ([5]; vemurafenib 0.5 μM): proliferation of cancer cells could be inhibited at a significant level

SMILES: Nc1ccn([C@@H]2O[C@H](CO)[C@@H](O)C2(F)F)c(=O)n1 [gemcitabine]
- anticancer synergistic effect of the triple drug administration ([9]; gemcitabine 40 mg/kg with gossypol 80 mg/kg and phenformin 100 mg/kg (FIG. 10)): not observed
- tumor growth (change in tumor size) ([9]; gemcitabine experiment: gossypol 80 mg/kg, phenformin 100 mg/kg, gemcitabine 40 mg/kg, single or double (Table 25, FIG. 10)): tumor growth at a level similar to that of the solvent administration group

SMILES: CCc1c2c(nc3ccc(OC(=O)N4CCC(N5CCCCC5)CC4)cc13)-c1cc3c(c(=O)n1C2)COC(=O)[C@]3(O)CC [irinotecan]
- effect of inhibiting cell proliferation in the triple drug treatment group [7]: level similar to that of the double drug treatment group
- synergistic effect of anticancer action when mixed with gossypol and phenformin [1]: can exhibit a synergistic effect
- degree of cell proliferation with respect to the untreated control [1]: proliferation of cancer cells could be inhibited at a significant level
- level of tumor growth [8]: significantly decreased the level of tumor growth
- degree of cell proliferation with respect to the untreated control [2]: proliferation of cancer cells could be inhibited at a significant level
- synergistic effect of anticancer action when mixed with gossypol and phenformin [2]: can exhibit a synergistic effect
- synergistic effect of anticancer action when mixed with gossypol and phenformin [3]: not exhibited
- effect of inhibiting cell proliferation in the triple drug treatment group [3]: level similar to that of the double drug treatment group
- synergistic effect of anticancer action when mixed with gossypol and phenformin [4]: can exhibit a synergistic effect
- degree of cell proliferation with respect to the untreated control [4]: proliferation of cancer cells could be inhibited at a significant level

SMILES: CCCCCOC(=O)Nc1nc(=O)n([C@@H]2O[C@H](C)[C@@H](O)[C@H]2O)cc1F [capecitabine]
- effect of inhibiting cell proliferation in the triple drug treatment group [4]: level similar to that of the double drug treatment group
- synergistic effect of anticancer action when mixed with gossypol and phenformin [4]: not exhibited

SMILES: O=C1[O][Pt]2([NH][C@@H]3CCCC[C@H]3[NH]2)[O]C1=O [oxaliplatin]
- effect of inhibiting cell proliferation in the triple drug treatment group [5]: level similar to that of the double drug treatment group

SMILES: O=c1[nH]cc(F)c(=O)[nH]1 [5-FU, 5-fluorouracil]
- effect of inhibiting cell proliferation in the triple drug treatment group [2]: level similar to that of the double drug treatment group
- synergistic effect of anticancer action when mixed with gossypol and phenformin [2]: not exhibited

SMILES: CC(=O)O[C@@]12CO[C@@H]1C[C@H](O)[C@@]1(C)C(=O)[C@H](O)C3=C(C)[C@@H](OC(=O)[C@H](O)[C@@H](NC(=O)OC(C)(C)C)c4ccccc4)C[C@@](O)([C@@H](OC(=O)c4ccccc4)[C@H]21)C3(C)C [docetaxel]
- effect of inhibiting cell proliferation in the triple drug treatment group [7]: level similar to that of the double drug treatment group
